# Compound: Nc1ncnc2c1ncn2[C@@H]1O[C@H](COP(=O)(O)OP(=O)(O)OP(=O)(O)O)[C@@H](O)[C@H]1O [adenosine triphosphate]
# Assay: pEC50 of ATP-induced change in protein thermal stability (2D-TPP)
# Description: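 2D thermal proteome profiling in mechanically disrupted Jurkat crude lysate. Lysate was treated 10 min at room temperature with Na-ATP (0, 0.005, 0.05, 0.5, 2 mM), heated to 12 temperatures (42-63.9 °C) for 3 min, and soluble protein was quantified by TMT10 LC-MS/MS. pEC50 is the median over replicates of dose-response fits at the lowest temperature showing a fold change of at least 1.5 (FDR-controlled hits).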
# UniProt P35790, sequence (P35790 whole entry, looked up): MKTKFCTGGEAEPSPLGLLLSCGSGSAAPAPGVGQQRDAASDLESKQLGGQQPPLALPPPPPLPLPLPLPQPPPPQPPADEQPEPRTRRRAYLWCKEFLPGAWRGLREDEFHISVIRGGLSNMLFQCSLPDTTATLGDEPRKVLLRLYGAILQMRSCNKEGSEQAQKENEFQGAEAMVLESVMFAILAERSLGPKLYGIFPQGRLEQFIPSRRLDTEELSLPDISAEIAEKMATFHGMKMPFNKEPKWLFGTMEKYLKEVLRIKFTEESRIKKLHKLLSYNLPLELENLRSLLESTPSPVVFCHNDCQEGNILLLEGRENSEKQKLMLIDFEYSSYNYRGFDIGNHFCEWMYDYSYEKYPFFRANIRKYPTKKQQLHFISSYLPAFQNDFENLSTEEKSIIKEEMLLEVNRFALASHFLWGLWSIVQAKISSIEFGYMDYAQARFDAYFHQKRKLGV
# UniProt O95067, sequence (O95067 whole entry): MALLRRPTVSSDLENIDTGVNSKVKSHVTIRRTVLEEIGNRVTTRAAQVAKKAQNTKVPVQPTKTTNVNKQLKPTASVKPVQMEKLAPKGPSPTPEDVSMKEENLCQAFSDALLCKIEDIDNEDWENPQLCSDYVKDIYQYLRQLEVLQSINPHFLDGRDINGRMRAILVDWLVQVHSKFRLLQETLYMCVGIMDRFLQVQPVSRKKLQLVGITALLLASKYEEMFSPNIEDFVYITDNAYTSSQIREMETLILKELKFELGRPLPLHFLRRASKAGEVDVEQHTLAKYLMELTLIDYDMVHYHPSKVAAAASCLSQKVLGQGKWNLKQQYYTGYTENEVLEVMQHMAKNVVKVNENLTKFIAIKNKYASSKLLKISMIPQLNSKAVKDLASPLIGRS
# UniProt O75390, sequence (O75390 whole entry): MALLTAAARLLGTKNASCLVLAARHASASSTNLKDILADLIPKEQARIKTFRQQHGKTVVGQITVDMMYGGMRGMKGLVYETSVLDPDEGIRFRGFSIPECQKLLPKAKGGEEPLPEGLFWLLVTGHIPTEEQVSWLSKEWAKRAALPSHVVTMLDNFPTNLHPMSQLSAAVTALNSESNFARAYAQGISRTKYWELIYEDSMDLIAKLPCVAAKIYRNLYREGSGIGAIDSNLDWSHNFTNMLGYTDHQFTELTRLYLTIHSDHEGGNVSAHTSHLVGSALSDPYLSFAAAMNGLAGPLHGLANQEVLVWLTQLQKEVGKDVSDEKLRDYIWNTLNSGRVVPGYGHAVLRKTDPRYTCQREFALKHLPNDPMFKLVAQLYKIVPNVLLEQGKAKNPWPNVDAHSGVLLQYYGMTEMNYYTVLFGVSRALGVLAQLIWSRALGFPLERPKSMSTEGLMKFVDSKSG
# UniProt Q16698, sequence (Q16698 whole entry): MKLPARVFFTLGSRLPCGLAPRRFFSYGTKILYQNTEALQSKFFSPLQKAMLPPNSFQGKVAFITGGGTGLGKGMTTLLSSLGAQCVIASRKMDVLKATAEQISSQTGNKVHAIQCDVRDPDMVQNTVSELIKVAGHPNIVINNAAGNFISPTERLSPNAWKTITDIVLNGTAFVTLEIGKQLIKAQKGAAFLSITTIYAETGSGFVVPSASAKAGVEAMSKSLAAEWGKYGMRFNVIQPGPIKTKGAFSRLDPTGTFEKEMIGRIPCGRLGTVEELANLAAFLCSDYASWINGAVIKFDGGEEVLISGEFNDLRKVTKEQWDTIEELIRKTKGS
# UniProt Q9NZN8, sequence (Q9NZN8 whole entry): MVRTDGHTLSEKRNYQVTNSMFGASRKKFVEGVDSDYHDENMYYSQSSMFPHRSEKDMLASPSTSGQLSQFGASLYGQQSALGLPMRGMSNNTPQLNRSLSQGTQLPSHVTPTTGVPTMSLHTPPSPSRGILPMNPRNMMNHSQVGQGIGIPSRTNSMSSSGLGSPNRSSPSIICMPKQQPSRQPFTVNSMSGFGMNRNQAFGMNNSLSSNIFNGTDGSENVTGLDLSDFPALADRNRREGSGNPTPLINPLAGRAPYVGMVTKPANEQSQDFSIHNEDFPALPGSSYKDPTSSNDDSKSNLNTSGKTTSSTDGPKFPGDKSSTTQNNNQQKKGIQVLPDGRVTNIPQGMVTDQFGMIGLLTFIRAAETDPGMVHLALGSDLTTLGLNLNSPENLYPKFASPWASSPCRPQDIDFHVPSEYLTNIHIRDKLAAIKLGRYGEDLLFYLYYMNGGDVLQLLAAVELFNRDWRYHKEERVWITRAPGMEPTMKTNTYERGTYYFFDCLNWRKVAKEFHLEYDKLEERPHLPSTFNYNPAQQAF
# UniProt Q86WJ1, sequence (Q86WJ1 whole entry): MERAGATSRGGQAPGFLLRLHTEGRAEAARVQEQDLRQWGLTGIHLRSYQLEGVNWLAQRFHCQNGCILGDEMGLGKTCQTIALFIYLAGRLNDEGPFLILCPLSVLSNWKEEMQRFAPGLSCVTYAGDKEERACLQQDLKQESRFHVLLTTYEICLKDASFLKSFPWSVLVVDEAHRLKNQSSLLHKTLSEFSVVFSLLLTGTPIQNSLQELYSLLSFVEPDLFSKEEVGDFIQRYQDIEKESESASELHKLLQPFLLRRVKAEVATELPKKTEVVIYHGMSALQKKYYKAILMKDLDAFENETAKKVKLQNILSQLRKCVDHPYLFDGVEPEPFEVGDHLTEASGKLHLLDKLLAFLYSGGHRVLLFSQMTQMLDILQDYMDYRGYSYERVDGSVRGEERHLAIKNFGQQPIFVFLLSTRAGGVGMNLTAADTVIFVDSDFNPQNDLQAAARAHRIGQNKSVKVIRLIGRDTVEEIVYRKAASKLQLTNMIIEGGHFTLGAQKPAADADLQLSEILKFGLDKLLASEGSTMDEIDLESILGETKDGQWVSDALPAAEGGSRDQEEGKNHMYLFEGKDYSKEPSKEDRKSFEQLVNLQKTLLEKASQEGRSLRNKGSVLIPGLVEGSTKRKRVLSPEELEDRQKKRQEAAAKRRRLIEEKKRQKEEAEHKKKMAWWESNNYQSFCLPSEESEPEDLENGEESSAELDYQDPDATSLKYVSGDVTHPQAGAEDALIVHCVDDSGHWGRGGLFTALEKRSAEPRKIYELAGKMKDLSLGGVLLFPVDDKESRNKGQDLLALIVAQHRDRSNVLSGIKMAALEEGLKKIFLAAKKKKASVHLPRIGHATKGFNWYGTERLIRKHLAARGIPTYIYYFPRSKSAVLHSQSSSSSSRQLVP
# UniProt Q8WYA6, sequence (Q8WYA6 whole entry): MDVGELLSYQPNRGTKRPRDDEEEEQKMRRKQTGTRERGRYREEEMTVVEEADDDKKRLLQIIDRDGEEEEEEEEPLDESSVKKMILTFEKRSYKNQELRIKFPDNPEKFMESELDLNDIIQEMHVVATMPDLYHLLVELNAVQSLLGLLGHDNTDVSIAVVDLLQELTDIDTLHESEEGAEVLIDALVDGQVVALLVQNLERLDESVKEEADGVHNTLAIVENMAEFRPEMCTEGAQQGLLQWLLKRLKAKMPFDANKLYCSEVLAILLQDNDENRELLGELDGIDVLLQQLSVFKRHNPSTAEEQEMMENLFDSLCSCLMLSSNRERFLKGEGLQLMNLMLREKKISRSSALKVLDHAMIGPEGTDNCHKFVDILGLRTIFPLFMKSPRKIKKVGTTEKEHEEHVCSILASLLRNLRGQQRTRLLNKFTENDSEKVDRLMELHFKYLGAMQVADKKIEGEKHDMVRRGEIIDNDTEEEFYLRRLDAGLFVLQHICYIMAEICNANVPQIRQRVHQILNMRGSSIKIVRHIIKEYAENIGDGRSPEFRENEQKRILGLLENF
# UniProt Q14203, sequence (Q14203 whole entry): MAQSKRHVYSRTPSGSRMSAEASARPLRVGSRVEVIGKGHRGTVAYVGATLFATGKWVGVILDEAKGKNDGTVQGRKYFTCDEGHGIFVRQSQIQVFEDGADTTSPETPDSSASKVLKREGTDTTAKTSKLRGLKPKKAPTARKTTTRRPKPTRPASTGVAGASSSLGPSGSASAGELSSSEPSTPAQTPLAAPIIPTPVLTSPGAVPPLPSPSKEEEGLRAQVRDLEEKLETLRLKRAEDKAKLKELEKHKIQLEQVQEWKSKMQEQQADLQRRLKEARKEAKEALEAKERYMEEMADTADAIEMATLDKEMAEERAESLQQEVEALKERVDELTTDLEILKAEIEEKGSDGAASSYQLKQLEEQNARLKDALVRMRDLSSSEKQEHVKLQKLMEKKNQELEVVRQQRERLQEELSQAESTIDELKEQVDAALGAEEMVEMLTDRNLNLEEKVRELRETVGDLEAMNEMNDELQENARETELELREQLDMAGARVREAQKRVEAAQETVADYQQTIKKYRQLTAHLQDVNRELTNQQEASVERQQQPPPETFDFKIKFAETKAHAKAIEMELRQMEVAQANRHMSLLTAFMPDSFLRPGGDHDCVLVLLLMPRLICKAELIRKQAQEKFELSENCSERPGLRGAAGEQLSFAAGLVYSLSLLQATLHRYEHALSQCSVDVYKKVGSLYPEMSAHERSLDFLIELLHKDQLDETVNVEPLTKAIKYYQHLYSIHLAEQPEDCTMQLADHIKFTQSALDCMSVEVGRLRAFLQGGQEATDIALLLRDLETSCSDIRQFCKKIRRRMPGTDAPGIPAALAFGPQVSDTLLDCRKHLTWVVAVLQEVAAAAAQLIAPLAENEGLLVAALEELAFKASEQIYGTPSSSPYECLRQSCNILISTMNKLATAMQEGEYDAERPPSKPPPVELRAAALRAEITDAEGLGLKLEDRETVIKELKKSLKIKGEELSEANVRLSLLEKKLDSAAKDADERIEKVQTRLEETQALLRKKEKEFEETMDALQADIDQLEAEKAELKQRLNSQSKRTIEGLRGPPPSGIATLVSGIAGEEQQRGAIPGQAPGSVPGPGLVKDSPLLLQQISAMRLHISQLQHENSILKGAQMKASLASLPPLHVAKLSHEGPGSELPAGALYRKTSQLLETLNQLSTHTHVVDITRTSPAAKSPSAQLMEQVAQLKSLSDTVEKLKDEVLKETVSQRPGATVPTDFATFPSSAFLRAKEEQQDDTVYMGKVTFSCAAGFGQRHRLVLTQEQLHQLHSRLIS
row,pEC50,Target
1,3.63,CARS (effect direction: stabilized) (UniProt P49589)
2,2.96,CBWD1 (effect direction: stabilized) (UniProt Q9BRT8)
3,3.49,CCDC12 (effect direction: destabilized) (UniProt Q8WUD4)
4,< 2.7,CCDC86 (effect direction: stabilized) (UniProt Q9H6F5)
5,4.27,CCNB1 (effect direction: stabilized) (UniProt P14635)
6,4.13,CCNB2 (effect direction: stabilized) (UniProt O95067)
7,3.02,CCT5 (effect direction: stabilized) (UniProt P48643)
8,4.38,CCT6A (effect direction: stabilized) (UniProt P40227)
9,4.39,CCT7 (effect direction: stabilized) (UniProt Q99832)
10,3.22,CDC40 (effect direction: destabilized) (UniProt O60508)
11,2.77,CDIPT (effect direction: destabilized) (UniProt O14735)
12,3.13,CDK2 (effect direction: stabilized) (UniProt P24941)
13,3.46,CDK5 (effect direction: stabilized) (UniProt Q00535)
14,> 5.3,CDK9 (effect direction: stabilized) (UniProt P50750)
15,2.9,CDKAL1 (effect direction: destabilized) (UniProt Q5VV42)
16,3.06,CEBPZ (effect direction: destabilized) (UniProt Q03701)
17,4.04,CENPE (effect direction: stabilized) (UniProt Q02224)
18,< 2.7,CHD1 (effect direction: stabilized) (UniProt O14646)
19,3.74,CHD1L (effect direction: stabilized) (UniProt Q86WJ1)
20,3.05,CHERP (effect direction: stabilized) (UniProt Q8IWX8)
21,3.49,CHKA (effect direction: stabilized) (UniProt P35790)
22,< 2.7,CHORDC1 (effect direction: stabilized) (UniProt Q9UHD1)
23,2.98,CINP (effect direction: stabilized) (UniProt Q9BW66)
24,3.23,CLCN3 (effect direction: stabilized) (UniProt P51790)

row,pEC50,Target
1,3.4,CLCN7 (effect direction: stabilized) (UniProt P51798)
2,< 2.7,CLIC1 (effect direction: stabilized) (UniProt O00299)
3,3.38,CLN5 (effect direction: stabilized) (UniProt O75503)
4,2.92,CLYBL (effect direction: destabilized) (UniProt Q8N0X4)
5,3.27,CMPK1 (effect direction: stabilized) (UniProt P30085)
6,3.41,CNOT1 (effect direction: stabilized) (UniProt A5YKK6)
7,2.77,CNOT2 (effect direction: stabilized) (UniProt Q9NZN8)
8,3.17,CNOT10 (effect direction: stabilized) (UniProt Q9H9A5)
9,< 2.7,COPB2 (effect direction: stabilized) (UniProt P35606)
10,< 2.7,COPS5 (effect direction: stabilized) (UniProt Q92905)
11,< 2.7,COPS6 (effect direction: stabilized) (UniProt Q7L5N1)
12,< 2.7,CPSF1 (effect direction: stabilized) (UniProt Q10570)
13,< 2.7,CPSF2 (effect direction: stabilized) (UniProt Q9P2I0)
14,< 2.7,CRLF3 (effect direction: stabilized) (UniProt Q8IUI8)
15,< 2.7,CS (effect direction: stabilized) (UniProt O75390)
16,3.69,CSE1L (effect direction: stabilized) (UniProt P55060)
17,2.87,CTBP1 (effect direction: stabilized) (UniProt Q13363)
18,2.87,CTBS (effect direction: stabilized) (UniProt Q01459)
19,3.08,CTNNBL1 (effect direction: stabilized) (UniProt Q8WYA6)
20,3.12,CTSA (effect direction: stabilized) (UniProt P10619)
21,3.34,CTSB (effect direction: stabilized) (UniProt P07858)
22,3.11,CTSD (effect direction: stabilized) (UniProt P07339)
23,< 2.7,CYB5R1 (effect direction: stabilized) (UniProt Q9UHQ9)
24,4.02,CYB5R3 (effect direction: stabilized) (UniProt P00387)

row,pEC50,Target
1,4.12,DARS2 (effect direction: stabilized) (UniProt Q6PI48)
2,< 2.7,DCPS (effect direction: stabilized) (UniProt Q96C86)
3,< 2.7,DCTN1 (effect direction: stabilized) (UniProt Q14203)
4,3.2,DDB2 (effect direction: stabilized) (UniProt Q92466)
5,< 2.7,DDHD2 (effect direction: stabilized) (UniProt O94830)
6,3.15,DDX11L8 (effect direction: stabilized) (UniProt A8MPP1)
7,3.75,DDX19A (effect direction: stabilized) (UniProt Q9NUU7)
8,3.48,DDX20 (effect direction: stabilized) (UniProt Q9UHI6)
9,3.93,DDX49 (effect direction: stabilized) (UniProt Q9Y6V7)
10,3.68,DDX56 (effect direction: stabilized) (UniProt Q9NY93)
11,< 2.7,DECR1 (effect direction: stabilized) (UniProt Q16698)
12,3.16,DERA (effect direction: stabilized) (UniProt Q9Y315)
13,3.66,DHCR24 (effect direction: stabilized) (UniProt Q15392)
14,4.14,DHX16 (effect direction: stabilized) (UniProt O60231)
15,3.99,DHX36 (effect direction: stabilized) (UniProt Q9H2U1)
16,3.44,DHX40 (effect direction: stabilized) (UniProt Q8IX18)
17,4.17,DHX57 (effect direction: stabilized) (UniProt Q6P158)
18,3.42,DIS3L2 (effect direction: stabilized) (UniProt Q8IYB7)
19,2.82,DLGAP5 (effect direction: destabilized) (UniProt Q15398)
20,< 2.7,DNAJA2 (effect direction: stabilized) (UniProt O60884)
21,2.86,DNAJC13 (effect direction: stabilized) (UniProt O75165)
22,2.98,DNMT1 (effect direction: destabilized) (UniProt P26358)

# — the supplement of paper PMC6411743
